Values quoted from earlier work as cited in US20110076334A1, “METHODS AND COMPOSITIONS FOR TREATMENT OF RAYNAUD'S PHENOMENON” (priority 2009, published 2011).
Read-outs that look alike come from different tables or passages of the source.

Experiments:
[1] = ultra-short acting calcium channel blocker; marketed injectable emulsion
[2] = clevidipine
[3] = in vivo

Molecule	onset of action [1] [min]	initial phase half-life [2]	terminal half-life [2]	half-life (second phase) [3]	initial phase half-life [3]	terminal half-life [3]
CCCC(=O)OCOC(=O)C1=C(C)NC(C)=C(C(=O)OC)[C@H]1c1cccc(Cl)c1Cl (stereo in doubt) [Clevidipine, butyroxymethyl methyl 4-(2′,3′-dichlorophenyl)-2,6-dimethyl-1,4-dihydropyridine-3,5-dicarboxylate]	1 to 2	approximately 1 minute	approximately 15 minutes			
(±)-2-(benzyl-methyl amino) ethyl methyl 1,4-dihydro-2,6-dimethyl-4-(m-nitrophenyl)-3,5-pyridinedicarboxylate monohydrochloride [nicardipine]				about 44.8 minutes	approximately 2.7 minutes	approximately 14.4 hours
